Tests used:
[1] = DTA
[2] = Molar enthalpy of transition or fusion; conditions: DSC
[3] = molar heat capacity at constant pressure; conditions: 101.33 kPa, Small sample (50 mg) DSC

O=[N+]([O-])[O-].[Rb+] [rubidium nitrate]
Conditions | Molar enthalpy of transition or fusion, Crystal 1 [kcal/mol] | Molar enthalpy of transition or fusion, Crystal 2 [kcal/mol] | Molar enthalpy of transition or fusion, Crystal 3 [kcal/mol] | Molar enthalpy of transition or fusion, Crystal 4 [kcal/mol] | Triple point temperature, Crystal 1 [K] | Triple point temperature, Crystal 2 [K] | Triple point temperature, Crystal 3 [K] | Triple point temperature, Crystal 4 [K]
[1] | – | – | – | – | 583 | 555 | 500 | 437
[2] | 1.12 | 0.299 | 0.554 | 0.889 | – | – | – | –

[3]
Conditions | molar heat capacity at constant pressure [J/K/mol]
325.6 K, Crystal 4 | 99
330.6 K, Crystal 4 | 99.5
335.6 K, Crystal 4 | 101
340.6 K, Crystal 4 | 102
345.6 K, Crystal 4 | 101
350.6 K, Crystal 4 | 101
355.6 K, Crystal 4 | 102
360.6 K, Crystal 4 | 100
365.6 K, Crystal 4 | 104
370.6 K, Crystal 4 | 104
375.6 K, Crystal 4 | 106
380.6 K, Crystal 4 | 107
385.6 K, Crystal 4 | 109
390.6 K, Crystal 4 | 109
395.6 K, Crystal 4 | 110
400.6 K, Crystal 4 | 111
405.6 K, Crystal 4 | 112
410.6 K, Crystal 4 | 113
415.6 K, Crystal 4 | 113
420.6 K, Crystal 4 | 114
425.5 K, Crystal 4 | 123
430.5 K, Crystal 4 | 118
435.5 K, Crystal 4 | 123
440.5 K, Crystal 3 | 833
445.5 K, Crystal 3 | 134
450.5 K, Crystal 3 | 134
455.5 K, Crystal 3 | 135
460.5 K, Crystal 3 | 136
465.5 K, Crystal 3 | 136
470.5 K, Crystal 3 | 138
475.5 K, Crystal 3 | 138
480.5 K, Crystal 3 | 138
485.5 K, Crystal 3 | 138
490.5 K, Crystal 3 | 139
495.5 K, Crystal 3 | 139
500.5 K, Crystal 2 | 303
505.5 K, Crystal 2 | 368
510.5 K, Crystal 2 | 175
515.5 K, Crystal 2 | 132
520.5 K, Crystal 2 | 134
525.5 K, Crystal 2 | 135
530.5 K, Crystal 2 | 136
535.5 K, Crystal 2 | 136
540.5 K, Crystal 2 | 136
545.5 K, Crystal 2 | 137
550.5 K, Crystal 2 | 161
555.5 K, Crystal 1 | 151
560.5 K, Crystal 1 | 399
565.5 K, Crystal 1 | 112
570.5 K, Crystal 1 | 113
575.5 K, Crystal 1 | 111
580.5 K, Crystal 1 | 115
585.5 K, Liquid | 744
590.5 K, Liquid | 249
595.5 K, Liquid | 157
600.5 K, Liquid | 140
605.5 K, Liquid | 138
610.5 K, Liquid | 138
615.5 K, Liquid | 138
620.5 K, Liquid | 137

O=[N+]([O-])[O-].O=[N+]([O-])[O-].[Li+].[Rb+] [lithium rubidium nitrate]
Crystal
Conditions | Molar enthalpy of transition or fusion [kcal/mol] | Triple point temperature [K]
[1] | – | 460
[2] | 5.31 | –

[3]
Conditions | molar heat capacity at constant pressure [J/K/mol]
315.6 K, Crystal | 150.8
320.6 K, Crystal | 166.6
325.6 K, Crystal | 171.8
330.6 K, Crystal | 190.8
335.6 K, Crystal | 179.2
340.6 K, Crystal | 184.8
345.6 K, Crystal | 184
350.6 K, Crystal | 200
355.6 K, Crystal | 204
360.6 K, Crystal | 222
365.6 K, Crystal | 222
370.6 K, Crystal | 190.6
375.6 K, Crystal | 206
380.6 K, Crystal | 189
385.6 K, Crystal | 196.4
390.5 K, Crystal | 206
395.5 K, Crystal | 224
400.5 K, Crystal | 191.4
405.5 K, Crystal | 210
410.5 K, Crystal | 195.4
420.5 K, Crystal | 206
425.5 K, Crystal | 224
435.5 K, Crystal | 232
445.5 K, Crystal | 262
460.5 K, Liquid | 374
470.5 K, Liquid | 346
475.5 K, Liquid | 342
480.5 K, Liquid | 364
485.5 K, Liquid | 382
490.5 K, Liquid | 384

Source: the NIST ThermoML archive (doi:10.1016/j.tca.2013.06.040)
